Our source for the IC50 values is US11780840B2 (Incyte Corporation, priority 2020, dated 2023).

Assay [1] has as its target T1, pseudo-kinase domain (JH2, amino-acids 536-812 with 3 surface mutations W659A, W777A, F794H) of human V617F mutant JAK2 (Homo sapiens, UniProt O60674, F794H/V617F/W659A/W777A).
T1 construct: pseudo-kinase domain (JH2, amino-acids 536-812 with 3 surface mutations W659A, W777A, F794H); His (C); Avi (biotinylated) (C); purchased BPS Bioscience 79498; host or cells: baculovirus expression system
Description: JAK2 LanthaScreen JH2-V617F Binding Assay. The following applies: JAK2 JH2-V617F (0.26 nM), 50 nM Fluorescent JAK2-JH2 Tracer, 1 hour at 25° C.; read-out: JH2 BIND V617F. The protocol:
Example C. JAK2 LanthaScreen JH2-V617F Binding Assay
(§1) JAK2 JH2-V617F binding assay utilizes pseudo-kinase domain (JH2, amino-acids 536-812 with 3 surface mutations W659A, W777A, F794H) of human V617F mutant JAK2 expressed as C-terminal His-Avi-tagged, biotinylated protein in a baculovirus expression system (BPS Bioscience, Catalog #79498). The assay was conducted in black 384-well polystyrene plates in a final reaction volume of 20 μL. JAK2 JH2-V617F (0.26 nM) was incubated with compounds (100 nL serially diluted in DMSO) in the presence of 50 nM Fluorescent JAK2-JH2 Tracer (MedChem Express Catalog #HY-102055) and 0.25 nM Streptavidin-Tb cryptate (Cisbio Part #610SATLB) in assay buffer (50 mM Tris, pH=7.5, 10 mM MgCl2, 0.01% Brij-35, 0.1% BSA, 1 mM EGTA, 5% Glycerol and 5 mM DTT). Non-specific binding was accessed in the presence of 2 mM ATP. After incubation for 1 hour at 25° C., LanthaScreen signals were read on a PHERAstar FS plate reader (BMG LABTECH). Data was analyzed with IDBS XLfit and GraphPad Prism 5.0 software using a four parameter dose response curve to determine IC50 for each compound.
In general terms: TR-FRET usually uses a lanthanide donor and a delayed reading to cut background.

For assay [2], the target named is T2, catalytic domain (JH1, amino acids 826-1132) of human JAK2 (Homo sapiens, UniProt O60674).
T2 construct: catalytic domain (JH1, amino acids 826-1132) of human JAK2; FLAG (N); purchased Carna Biosciences 08-445-20N; host or cells: baculovirus expression system
The experiment in a line: JAK2 LanthaScreen JH1 Binding Assay. To be noted: JAK2 JH1 (1.5 nM), 50 nM fluorescent JAK2-JH1 tracer, 2 hours at 25° C.; read-out: JH1 BIND. As to the method:
Example A. JAK2 LanthaScreen JH1 Binding Assay
JAK2 JH1 binding assay utilizes catalytic domain (JH1, amino acids 826-1132) of human JAK2 expressed as N-terminal FLAG-tagged, biotinylated protein in a baculovirus expression system (Carna Biosciences, Product #08-445-20N). The assay was conducted in black 384-well polystyrene plates in a final reaction volume of 20 μL. JAK2 JH1 (1.5 nM) was incubated with compounds (100 nL serially diluted in DMSO) in the presence of 50 nM fluorescent JAK2-JH1 tracer and 0.5 nM Streptavidin-Tb cryptate (Cisbio Part #610SATLB) in assay buffer (50 mM Tris, pH=7.5, 10 mM MgCl2, 0.01% Brij-35, 0.1% BSA, 1 mM EGTA, 5% Glycerol and 5 mM DTT). Non-specific binding was accessed in the presence of 2 mM ATP. After incubation for 2 hours at 25° C., LanthaScreen signals were read on a PHERAstar FS plate reader (BMG LABTECH). Data was analyzed with IDBS XLfit and GraphPad Prism 5.0 software using a four parameter dose response curve to determine IC50 for each compound.

For assay [3], the target named is T3, pseudo-kinase domain (JH2, amino-acids 536-812 with 3 surface mutations W659A, W777A, F794H) of human Wild Type JAK2 (Homo sapiens, UniProt O60674, F794H/W659A/W777A).
T3 construct: pseudo-kinase domain (JH2, amino-acids 536-812 with 3 surface mutations W659A, W777A, F794H); His (C); Avi (biotinylated) (C); purchased BPS Bioscience 79463; host or cells: baculovirus expression system
The experiment in a line: JAK2 LanthaScreen JH2-WT Binding Assay. To be noted: JAK2 JH2-WT (0.145 nM), 50 nM Fluorescent JAK2-JH2 Tracer, 1 hour at 25° C.; read-out: JH2 BIND WT. As to the method:
Example B. JAK2 LanthaScreen JH2-WT Binding Assay
as §1, with “JH2-WT” for “JH2-V617F”, “Wild Type” for “V617F mutant”, “#79463).” for “#79498).”, “JH2-WT (0.145” for “JH2-V617F (0.26”

The structures appear in SMILES notation. A value given as a limit tells only on which side of the number the result lay.

T2 sequence (O60674 826-1132): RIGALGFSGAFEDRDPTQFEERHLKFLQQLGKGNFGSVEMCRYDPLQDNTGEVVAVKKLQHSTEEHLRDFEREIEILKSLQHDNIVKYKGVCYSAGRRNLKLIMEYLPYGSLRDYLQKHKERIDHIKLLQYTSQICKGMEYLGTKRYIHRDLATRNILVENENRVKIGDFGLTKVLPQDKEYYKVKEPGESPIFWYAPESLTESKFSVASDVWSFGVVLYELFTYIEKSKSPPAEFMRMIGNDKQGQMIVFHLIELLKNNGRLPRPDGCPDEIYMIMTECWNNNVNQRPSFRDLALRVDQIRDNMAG
T1 sequence (O60674 536-812 V617F/W659A/W777A/F794H): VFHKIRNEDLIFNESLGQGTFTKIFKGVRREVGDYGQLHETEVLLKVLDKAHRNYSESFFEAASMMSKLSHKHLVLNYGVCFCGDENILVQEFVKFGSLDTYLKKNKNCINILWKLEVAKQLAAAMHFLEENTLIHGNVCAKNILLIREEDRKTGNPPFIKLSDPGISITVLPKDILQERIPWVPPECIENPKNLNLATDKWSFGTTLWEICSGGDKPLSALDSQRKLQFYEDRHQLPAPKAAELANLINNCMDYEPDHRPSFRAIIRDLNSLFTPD
T3 sequence (O60674 536-812 W659A/W777A/F794H): as the sequence (O60674 536-812 V617F/W659A/W777A/F794H) above, with F82V counted along it

With `CC(C)n1c(=O)n(C)c2cnc3[nH]c(C4=CCOCC4)c(-c4ccc(C#N)cc4)c3c21` [Example 38, 4-(7-(3,6-Dihydro-2H-pyran-4-yl)-1-isopropyl-3-methyl-2-oxo-1,2,3,6-tetrahydroimidazo [4,5-d]pyrrolo[2,3-b]pyridin-8-yl)benzonitrile], the IC50 was 10 to 100 nM in assay [1], greater than 1000 nM in assay [2] and 10 to 100 nM in assay [3].

Regarding `[2H]C([2H])([2H])n1ncc2cc(-c3c(-c4cnn5cccnc45)[nH]c4ncc5c(c34)n(C3CCOCC3)c(=O)n5C)ccc21` [Example 110, 3-Methyl-8-(1-(methyl-d3)-1H-indazol-5-yl)-7-(pyrazolo[1,5-a]pyrimidin-3-yl)-1-(tetrahydro-2H-pyran-4-yl)-3,6-dihydroimidazo[4,5-d]pyrrolo[2,3-b]pyridin-2(1H)-one], the IC50 in assay [1] was no more than 10 nM; in assay [2], greater than 1000 nM; in assay [3], no more than 10 nM.

Regarding `CCc1[nH]c2ncc3c(c2c1-c1ccc2c(cnn2C)c1)n(C1CCCC1)c(=O)n3C` [Example 97, 1-Cyclopentyl-7-ethyl-3-methyl-8-(1-methyl-1H-indazol-5-yl)-3,6-dihydroimidazo[4,5-d]pyrrolo[2,3-b]pyridin-2(1H)-one], the IC50 in assay [1] is 100 to 500 nM; in assay [2], greater than 1000 nM; in assay [3] it was 10 to 100 nM.

Turning to `Cn1c(=O)n(C)c2c3c(-c4ccccc4)c(CCO)[nH]c3ncc21` [Example 42, 7-(2-Hydroxyethyl)-1,3-dimethyl-8-phenyl-3,6-dihydroimidazo[4,5-d]pyrrolo[2,3-b]pyridin-2(1H)-one], the IC50 in assay [1], in assay [2] and in assay [3] was greater than 1000 nM in each case.

For the compound `Cn1c(=O)n(C2CCCCC2)c2c3cc(-c4cnn(CS(C)(=O)=O)c4)[nH]c3ncc21` [Example 12, 1-Cyclohexyl-3-methyl-7-(1-((methylsulfonyl)methyl)-1H-pyrazol-4-yl)-3,6-dihydroimidazo[4,5-d]pyrrolo[2,3-b]pyridin-2(1H)-one], the IC50 in assay [1] lay in the range of 100 to 500 nM; in assay [2], 10 to 100 nM; in assay [3], 10 to 100 nM.

Regarding `COc1ccc(-c2c(-c3ccc(CN4CCC(S(C)(=O)=O)CC4)cc3)[nH]c3ncc4c(c23)n(CC(C)C)c(=O)n4C)cc1` [Example 20, 1-Isobutyl-8-(4-methoxyphenyl)-3-methyl-7-(4-((4-(methylsulfonyl)piperidin-1-yl)methyl)phenyl)-3,6-dihydroimidazo [4,5-d]pyrrolo[2,3-b]pyridin-2(1H)-one], the IC50 in assay [1] was no more than 10 nM; in assay [2], 100 to 500 nM; in assay [3], no more than 10 nM.

For the compound `Cn1ncc2cc(-c3c(-c4cnn(CC(C)(C)O)c4)[nH]c4ncc5c(c34)n([C@H]3CC[C@@H](CC#N)CC3)c(=O)n5C)ccc21` [Example 103, 2-((1S,4S)-4-(7-(1-(2-Hydroxy-2-methylpropyl)-1H-pyrazol-4-yl)-3-methyl-8-(1-methyl-1H-indazol-5-yl)-2-oxo-3,6-dihydroimidazo[4,5-d]pyrrolo[2,3-b]pyridin-1(2H)-yl)cyclohexyl)acetonitrile], the IC50 in assay [1] was no more than 10 nM; in assay [2], 100 to 500 nM; in assay [3], no more than 10 nM.

Consider `COc1ccc(-c2c(-c3ccc(CN4CCC(S(C)(=O)=O)CC4)cc3)[nH]c3ncc4c([nH]c(=O)n4C)c23)cc1` [Example 23, 8-(4-Methoxyphenyl)-3-methyl-7-(4-((4-(methylsulfonyl)piperidin-1-yl)methyl)phenyl)-3,6-dihydroimidazo[4,5-d]pyrrolo[2,3-b]pyridin-2(1H)-one], for which the IC50 in assay [1] lay within 100 to 500 nM; in assay [2] it was 100 to 500 nM; in assay [3], 10 to 100 nM.

Take `Cn1c(=O)n(C2CCCC2)c2c3c(-c4ccc(C5(C#N)CC5)cc4)c(-c4ccc(CN5CCC(S(C)(=O)=O)CC5)cc4)[nH]c3ncc21` [Example 30, 1-(4-(1-Cyclopentyl-3-methyl-7-(4-((4-(methylsulfonyl)piperidin-1-yl)methyl)phenyl)-2-oxo-1,2,3,6-tetrahydroimidazo [4,5-d]pyrrolo[2,3-b]pyridin-8-yl)phenyl)cyclo-propane-1-carbonitrile]: the results for the IC50 in assay [1], in assay [2] and in assay [3] were no more than 10 nM, 100 to 500 nM and no more than 10 nM, respectively.

Take `CC(C)n1c(=O)n(C)c2cnc3[nH]c(-c4ccc(CN5CCC(S(C)(=O)=O)CC5)cc4)c(-c4cnn(Cc5ccc(C(=O)O)cc5)c4)c3c21` [Example 27, 4-((4-(1-Isopropyl-3-methyl-7-(4-((4-(methylsulfonyl)piperidin-1-yl)methyl)phenyl)-2-oxo-1,2,3,6-tetrahydroimidazo [4,5-d]pyrrolo[2,3-b]pyridin-8-yl)-1H-pyrazol-1-yl)methyl)benzoic acid]: the IC50 is no more than 10 nM in assay [1], 100 to 500 nM in assay [2] and no more than 10 nM in assay [3].

As to `CC(=O)N1CCN(c2cc3sc(-c4c(-c5cnn(CC(C)(C)O)c5)[nH]c5ncc6c(c45)n(C(C)C)c(=O)n6C)cc3cn2)CC1` [Example 81, 8-(6-(4-Acetylpiperazin-1-yl)thieno[3,2-c]pyridin-2-yl)-7-(1-(2-hydroxy-2-methylpropyl)-1H-pyrazol-4-yl)-1-isopropyl-3-methyl-3,6-dihydroimidazo[4,5-d]pyrrolo[2,3-b]pyridin-2(1H)-one], the IC50 was 10 to 100 nM in assay [1], greater than 1000 nM in assay [2] and no more than 10 nM in assay [3].

For `COc1ccc(-c2c(-c3ccc(CN4CCC(S(C)(=O)=O)CC4)cc3)[nH]c3ncc4c(c23)n(C2CCC2)c(=O)n4C)cc1` [Example 21, 1-Cyclobutyl-8-(4-methoxyphenyl)-3-methyl-7-(4-((4-(methylsulfonyl)piperidin-1-yl)methyl)phenyl)-3,6-dihydroimidazo [4,5-d]pyrrolo [2,3-b]pyridin-2(1H)-one], the IC50 was no more than 10 nM in assay [1], 100 to 500 nM in assay [2] and no more than 10 nM in assay [3].

Regarding `CC(C)n1c(=O)n(C)c2cnc3[nH]c(-c4ccc(CN5CCC(S(C)(=O)=O)CC5)cc4)c(-c4ccccc4)c3c21` [Example 18, 1-Isopropyl-3-methyl-7-(4-((4-(methylsulfonyl)piperidin-1-yl)methyl)phenyl)-8-phenyl-3,6-dihydroimidazo[4,5-d]pyrrolo[2,3-b]pyridin-2(1H)-one], the results for the IC50 in assay [1], in assay [2] and in assay [3] were no more than 10 nM, 100 to 500 nM and no more than 10 nM, respectively.
